Where a SMILES comes first, the peptide text is derived from it. Bridges are numbered along the chain shown (N, C = ends). [ ]: non-standard residue; d: D form. The star is where a group is joined. Ileψ(thiazoline)Cys = CC[C@H](C)[C@H](N)C1=N[C@H](C(=O)*)CS1; dOrn = NCCC[C@@H](N)C(=O)O
Experiments:
NRRL 15878 = test: Resistance to antibiotics, sensitivity discs on seeded ISP No. 2 agar; type: cell-based, Actinomadura oligospora
Method: (§1) Resistance to antibiotics was measured by padding antibiotic sensitivity discs onto the surface of seeded ISP No. 2 agar plates.
(§2) Table III lists the resistance of the strain to various antibiotics at the concentrations indicated and compares it to that of A. macra.

A. macra = test: as above; type: cell-based
Method: as §1, §2

CC[C@H](C)[C@H](N)C1=N[C@H](C(=O)N[C@@H](CC(C)C)C(=O)N[C@H](CCC(=O)O)C(=O)N[C@H](C(=O)N[C@H]2CCCCNC(=O)[C@H](CC(N)=O)NC(=O)[C@@H](CC(=O)O)NC(=O)[C@H](Cc3cnc[nH]3)NC(=O)[C@@H](Cc3ccccc3)NC(=O)[C@H]([C@@H](C)CC)NC(=O)[C@@H](CCCN)NC2=O)[C@@H](C)CC)CS1 [Bacitracin] ({Ileψ(thiazoline)Cys}-L[dE]IK[dOrn]I[dF]H[dD]N; lactam 4-C)
Resistance to Antibiotics (NRRL 15878; Concentration 10 units): +
Resistance to Antibiotics (A. macra; Concentration 10 units): -

CC(=O)OCC1=C(C(=O)O)N2C(=O)[C@@H](NC(=O)Cc3cccs3)[C@H]2SC1 [Cephalothin]
Resistance to Antibiotics (A. macra; Concentration 30 µg): +

CC1(C)S[C@@H]2[C@H](NC(=O)Cc3ccccc3)C(=O)N2[C@H]1C(=O)O [Pencillin G]
Resistance to Antibiotics (A. macra; Concentration 10 units): +

CO[C@H]1/C=C/O[C@@]2(C)Oc3c(C)c(O)c4c(O)c(c(/C=N/N5CCN(C)CC5)c(O)c4c3C2=O)NC(=O)/C(C)=C\C=C\[C@H](C)[C@H](O)[C@@H](C)[C@@H](O)[C@@H](C)[C@H](OC(C)=O)[C@@H]1C [Rifampin]
Resistance to Antibiotics (A. macra; Concentration 5 µg): +

[H]/N=C(/N)N[C@H]1[C@H](O)[C@@H](O)[C@H](O[C@@H]2O[C@@H](C)[C@](O)(C=O)[C@H]2O[C@@H]2O[C@@H](CO)[C@H](O)[C@@H](O)[C@@H]2NC)[C@@H](N/C(N)=N\[H])[C@@H]1O [Streptomycin]
Resistance to Antibiotics (A. macra; Concentration 10 µg): +

CN(C)[C@@H]1C(O)=C(C(N)=O)C(=O)[C@@]2(O)C(O)=C3C(=O)c4c(O)cccc4[C@@](C)(O)[C@H]3C[C@@H]12 [Tetracycline]
Resistance to Antibiotics (A. macra; Concentration 30 µg): -

CN[C@H](CC(C)C)C(=O)N[C@H]1C(=O)N[C@@H](CC(N)=O)C(=O)N[C@H]2C(=O)N[C@H]3C(=O)N[C@H](C(=O)N[C@H](C(=O)O)c4cc(O)cc(O)c4-c4cc3ccc4O)[C@H](O)c3ccc(c(Cl)c3)Oc3cc2cc(c3O[C@@H]2O[C@H](CO)[C@@H](O)[C@H](O)[C@H]2O[C@H]2C[C@](C)(N)[C@H](O)[C@H](C)O2)Oc2ccc(cc2Cl)[C@H]1O [Vancomycin]
Resistance to Antibiotics (NRRL 15878; Concentration 30 µg): -
Resistance to Antibiotics (A. macra; Concentration 30 µg): -

Gentamicin
Resistance to Antibiotics (NRRL 15878; Concentration 10 µg): -
Resistance to Antibiotics (A. macra; Concentration 10 µg): -

From patent publication EP0184291B1, “Polyether antibiotic A80190” (ELI LILLY AND COMPANY, priority 1984, dated 1986)
